Molecules are shown by their SMILES. Where a name gives a salt, the structure may show the parent alone. Where only a bound is given, the exact number is not on record here.

In the test the test system is MTT (mouse pheochromocytoma). The test is described as follows: IC50 of cell viability (ATP content). To be noted: (24 or 48 h). In outline:
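MTT mouse pheochromocytoma cells, cultured overnight at 37°C, 5% CO2 in DMEM with 5% FBS and 1% horse serum, were exposed in white 1536-well plates to library compounds in DMSO at final 0.5 nM to 46 µM (8 concentrations) for 24 or 48 hrs. CellTiter-Glo luminescence was normalised to positive-control (100%) and DMSO (0%) wells. A four-parameter logistic fit gave the IC50.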
As to `CO/N=C1\C[C@]2(C[C@@H]3C[C@H](CC=C(C)C[C@@H](C)C=CC=C4CO[C@@H]5[C@@H](O)C(C)=C[C@@H](C(=O)O3)[C@]45O)O2)O[C@@H](/C(C)=C/C(C)C)[C@H]1C` [Moxidectin], the “IC50 of cell viability” value is greater than 46 µM.

Turning to `O.Cl.COC1=C2N(\C=C(C(O)=O)/C(=O)C2=CC(=C1N3C[C@@H]4CCCN[C@@H]4C3)F)C5CC5` [Moxifloxacin Hydrochloride Monohydrate], the “IC50 of cell viability” value was greater than 46 µM.

In the case of `CC(=O)Oc1cc(C(C)C)c(OCCN(C)C)cc1C` [Moxisylyte hydrochoride], the “IC50 of cell viability” value is greater than 46 µM.

Regarding `COC1=NC(=NC(=C1N\C2=N\CCN2)Cl)C` [Moxonidine], the “IC50 of cell viability” value is greater than 46 µM.

As to `CCCCCCC(=O)CCCCCC/C=C/C[C@@H](O)[C@H](O)[C@@](N)(CO)C(=O)O` [Myriocin from Mycelia sterilia], the “IC50 of cell viability” value is greater than 46 µM.

As for `c1ccc(CNCCNCc2ccccc2)cc1` [N,N'-DIBENZYLETHYLENEDIAMMONIUM DI(ACETATE)], the “IC50 of cell viability” value is greater than 46 µM.

`C=CC(=O)NCNC(=O)C=C` [N,N'-Methylenebis(acrylamide)]: the “IC50 of cell viability” value is greater than 46 µM.

As for `CCN(CC)CCOc1ccc(Cc2ccccc2)cc1` [N,N-DIETHYL-2-[4-(PHENYLMETHYL)PHENOXY]ETHANAMINE], the “IC50 of cell viability” value is greater than 46 µM.

Regarding `CCN(CC)CCc1c[nH]c2ccccc12` [N,N-Diethyltryptamine], the “IC50 of cell viability” value is greater than 46 µM.

For `C[N+](C)(CCOc1ccccc1)Cc1cccs1.O=S([O-])Oc1ccc(Cl)cc1` [N,N-Dimethyl-N-2-phenoxyethyl-N-2 Äô-thenylammoniu ...], the “IC50 of cell viability” value is greater than 46 µM.

On to `CN(C)Cc1ccccc1` [N,N-Dimethylbenzylamine], for which the “IC50 of cell viability” value was greater than 46 µM.

For the compound `CN(C)CCc1c[nH]c2ccccc12` [N,N-Dimethyltryptamine], the “IC50 of cell viability” value is greater than 46 µM.

In the case of `CCCN(CCC)CCc1c[nH]c2ccccc12` [N,N-Dipropyltryptamine], the “IC50 of cell viability” value is greater than 46 µM.

On to `NCCNc1cccc2ccccc12.[Cl-].[Cl-].[H+].[H+]` [N-(1-Naphthyl)ethylenediamine 2HCl], for which the “IC50 of cell viability” value is greater than 46 µM.

In the case of `CC(=O)N[C@@H](Cc1ccc(O)cc1)C(=O)O` [N-ACETYL-TYROSINE], the “IC50 of cell viability” value is greater than 46 µM.

`CCCCC/C=C\C/C=C\C/C=C\C/C=C\CCCC(=O)NCC(=O)O` [N-ARACHIDONYLGLYCINE]: the “IC50 of cell viability” value is greater than 46 µM.

In the case of `CC(=O)Nc1ccc([S+](=O)([O-])Nc2cc(C)on2)cc1` [N-Acetyl Sulfamethoxazole], the “IC50 of cell viability” value was greater than 46 µM.

Turning to `CC(=O)N[C@@H](C=O)[C@@H](O)[C@H](O)[C@H](O)CO` [N-Acetylgalactosamine], the “IC50 of cell viability” value is greater than 46 µM.

Regarding `NC(=O)N[C@@H](CCC(=O)O)C(=O)O` [N-CARBAMYL-L-GLUTAMIC ACID], the “IC50 of cell viability” value is greater than 46 µM.

Regarding `c1ccc2sc(SNC3CCCCC3)nc2c1` [N-CYCLOHEXYLBENZOTHIAZYLSULFENAMIDE], the “IC50 of cell viability” value was greater than 46 µM.

As for `O=C1CCC(=O)N1CO` [N-HYDROXYMETHYLSUCCINIMIDE], the “IC50 of cell viability” value was greater than 46 µM.

`CC([C@H](O)c1ccccc1)N(C)C` (stereo partly drawn) [N-METHYL (-)EPHEDRINE]: the “IC50 of cell viability” value is greater than 46 µM.

`CNCc1ccccc1.Cl` [N-METHYLBENZYLAMINE HYDROCHLORIDE]: the “IC50 of cell viability” value is greater than 46 µM.

`CN1C(=O)c2ccccc2C1=O` [N-Methylphthalimide]: the “IC50 of cell viability” value is greater than 46 µM.

For the compound `COC(=O)[C@@H](N)CCCNC(=N)N[N+](=O)[O-]` [N-NITRO-ARGININE METHYL ESTER], the “IC50 of cell viability” value was greater than 46 µM.

As to `COC1=C2OC3C(O)\C=C/C4[C@H]5CC(=C2[C@@]34CCN5)C=C1` (stereo partly drawn) [N-Norcodeine], the “IC50 of cell viability” value was greater than 46 µM.

Turning to `OC1\C=C/C2[C@H]3CC4=C5C(=C(O)C=C4)OC1[C@@]25CCN3` (stereo partly drawn) [N-Normorphine], the “IC50 of cell viability” value was greater than 46 µM.

Take `CC(=O)N[C@@H](CS)C(=O)O` [N-acetylcysteine]: the “IC50 of cell viability” value is greater than 46 µM.

With `N=C(N)Nc1ccc(C(=O)Oc2ccc3cc(C(=N)N)ccc3c2)cc1` [NAFAMOSTAT MESILATE], the “IC50 of cell viability” value is greater than 46 µM.

Regarding `COc1ccccc1N1CCN(CC(O)COc2cccc3ccccc23)CC1` (stereo not drawn) [NAFTOPIDIL], the “IC50 of cell viability” value is greater than 46 µM.

Turning to `Oc1ccc2c3c1O[C@H]1[C@@H](O)CC[C@@]4(O)C(C2)N(CC2CCC2)CCC314` (stereo partly drawn) [NALBUPHINE], the “IC50 of cell viability” value is greater than 46 µM.

Turning to `C=C1CC[C@@]2(O)[C@H]3Cc4ccc(O)c5c4[C@@]2(CCN3CC2CC2)[C@H]1O5` [NALMEFENE HYDROCHLORIDE], the “IC50 of cell viability” value is greater than 46 µM.

In the case of `O[C@H]1\C=C/[C@H]2[C@H]3CC4=C5C(=C(O)C=C4)O[C@@H]1[C@@]25CCN3CC=C` [NALORPHINE HYDROCHLORIDE], the “IC50 of cell viability” value is greater than 46 µM.

Consider `C=CC[N+]1(C)CCC23c4c5ccc(O)c4O[C@H]2C(=O)CC[C@@]3(O)C1C5` (stereo partly drawn) [NALOXONE METHIODIDE], for which the “IC50 of cell viability” value was greater than 46 µM.

For `C=CCN1CCC23c4c5ccc(O)c4O[C@H]2C(=O)CC[C@@]3(O)C1C5` (stereo partly drawn) [NALOXONE], the “IC50 of cell viability” value is greater than 46 µM.

Take `O=C1CC[C@@]2(O)C3Cc4ccc(O)c5c4C2(CCN3CC2CC2)[C@H]1O5` (stereo partly drawn) [NALTREXONE]: the “IC50 of cell viability” value is greater than 46 µM.

Regarding `c1ccc2c(CC3=NCCN3)cccc2c1` [NAPHAZOLINE], the “IC50 of cell viability” value is greater than 46 µM.

With `COc1ccc2cc(C(C)CO)ccc2c1` (stereo not drawn) [NAPROXOL], the “IC50 of cell viability” value was greater than 46 µM.

Consider `CC(C)C1CCC(C(=O)NC(Cc2ccccc2)C(=O)O)CC1` (stereo not drawn) [NATEGLINIDE], for which the “IC50 of cell viability” value is greater than 46 µM.

Turning to `CCCCC(CC)COS(=O)(=O)[O-]` (stereo not drawn) [NATRII ETASULFAS], the “IC50 of cell viability” value is greater than 46 µM.

For `O=C([O-])/C=C/C(O)c1ccc(Cl)cc1.[Na+]` (stereo not drawn) [NCS-356], the “IC50 of cell viability” value was greater than 46 µM.

`[NH2][Pt]1([NH2])[O]CC(=O)[O]1` [NEDAPLATIN]: the “IC50 of cell viability” value is greater than 46 µM.

Regarding `COc1nc(N)nc2c1ncn2C1OC(CO)C(O)C1O` (stereo not drawn) [NELARABINE], the “IC50 of cell viability” value was greater than 46 µM.

As for `CN(C)C(=O)Oc1cccc([N+](C)(C)C)c1` [NEOSTIGMINE], the “IC50 of cell viability” value was greater than 46 µM.

With `CCCCc1cc2c(=O)c(C(=O)OC)c[nH]c2cc1OCc1ccccc1` [NEQUINATE], the “IC50 of cell viability” value was greater than 46 µM.

As to `C=CC(C)(O)CC/C=C(\C)CCC=C(C)C` (stereo not drawn) [NEROLIDOL], the “IC50 of cell viability” value is greater than 46 µM.

On to `CNC(=N)NCCC[C@H](N)C(=O)O` [NG-Monomethyl-L-arginine acetate], for which the “IC50 of cell viability” value is greater than 46 µM.

Turning to `CC(=O)O.CNC(=N)NCCC[C@H](N)C(=O)O` [NG-Monomethyl-L-arginine acetate], the “IC50 of cell viability” value was greater than 46 µM.

For `O=C(O)c1cccnc1` [NIACIN], the “IC50 of cell viability” value is greater than 46 µM.

`CCN(CC)CCOC(=O)c1cccnc1.O.O=C(O)CC(O)(CC(=O)O)C(=O)O` [NICAMETATE CITRATE]: the “IC50 of cell viability” value was greater than 46 µM.

Regarding `COC(=O)\C1=C(/C)N\C(=C(/C1C2=CC=CC(=C2)[N+]([O-])=O)C(=O)OCCN(C)CC3=CC=CC=C3)C` (stereo not drawn) [NICARDIPINE], the “IC50 of cell viability” value was greater than 46 µM.

In the case of `CO[C@]12C[C@@H](COC(=O)c3cncc(Br)c3)CN(C)[C@@H]1Cc1cn(C)c3cccc2c13` [NICERGOLINE], the “IC50 of cell viability” value was greater than 46 µM.

As for `O=C(OC[C@@H]1O[C@@](O)(COC(=O)c2cccnc2)[C@H](OC(=O)c2cccnc2)[C@H]1OC(=O)c1cccnc1)c1cccnc1` [NICOFURANOSUM], the “IC50 of cell viability” value was greater than 46 µM.

As for `O=C(NCCc1c[nH]c2ccccc12)c1cccnc1` [NICOTREDOLUM], the “IC50 of cell viability” value is greater than 46 µM.

For `COC(=O)\C1=C(/C)N\C(=C(/C1C2=C(C=CC=C2)[N+]([O-])=O)C(=O)OC)C` [NIFEDIPINE], the “IC50 of cell viability” value is greater than 46 µM.

Turning to `O=C(O)c1cccnc1Nc1cccc(C(F)(F)F)c1` [NIFLUMIC ACID], the “IC50 of cell viability” value is greater than 46 µM.

Turning to `O=NCc1ccc([N+](=O)[O-])o1` [NIFUROXIME], the “IC50 of cell viability” value was greater than 46 µM.

Turning to `COC(=O)C1=C(C#N)NC(C)=C(C(=O)OC(C)C)C1c1cccc([N+](=O)[O-])c1` (stereo not drawn) [NILVADIPINE], the “IC50 of cell viability” value is greater than 46 µM.

Consider `COCCOC(=O)\C1=C(/C)N\C(=C(/C1C2=CC=CC(=C2)[N+]([O-])=O)C(=O)OC(C)C)C` (stereo not drawn) [NIMODIPINE], for which the “IC50 of cell viability” value was greater than 46 µM.

For `Cc1ncc(CNC(=O)N(CCCl)N=O)c(N)n1` [NIMUSTINE], the “IC50 of cell viability” value is greater than 46 µM.

For `CNCCC(Oc1ccccc1OC)c1ccccc1` (stereo not drawn) [NISOXETINE], the “IC50 of cell viability” value was greater than 46 µM.

`O=[N+]([O-])c1ccc([As](=O)(O)O)cc1` [NITARSONE]: the “IC50 of cell viability” value is greater than 46 µM.

In the case of `CCN(Cc1ccc(Cl)nc1)/C(=C/[N+](=O)[O-])NC` [NITENPYRAM], the “IC50 of cell viability” value was greater than 46 µM.

With `CCOC(=O)\C1=C(/C)N\C(=C(/C1C2=CC=CC(=C2)[N+]([O-])=O)C(=O)OC)C` (stereo not drawn) [NITRENDIPINE], the “IC50 of cell viability” value was greater than 46 µM.

Consider `NC(=O)c1cc([N+](=O)[O-])cc([N+](=O)[O-])c1` [NITROMIDE], for which the “IC50 of cell viability” value is greater than 46 µM.

On to `Cc1ccc2nc(N)nc(O)c2c1Sc1ccncc1` [NOLATREXED], for which the “IC50 of cell viability” value was greater than 46 µM.

On to `CN1Cc2c(N)cccc2C(c2ccccc2)C1.O=C(O)/C=C\C(=O)O` (stereo not drawn) [NOMIFENSINE MALEATE], for which the “IC50 of cell viability” value was greater than 46 µM.

Turning to `C#C[C@]1(O)CC[C@H]2[C@@H]3CCC4=C/C(=N\O)CC[C@H]4[C@@H]3CC[C@]21CC` [NORELGESTROMIN], the “IC50 of cell viability” value was greater than 46 µM.

Source of the values: the supplement of paper PMC3974653.
